Data on seven compounds can be found in BindingDB's records for doi:10.1016/0196-9781(94)90118-x (Tulane University, 1994).

Experiment [1] concerns the target Somatostatin receptor type 3 (Rattus norvegicus, UniProt P30936).
For experiment [2], the target named is T1, Somatostatin receptor type 5 (Rattus norvegicus, UniProt P30938).
T1 sequence (P30938 whole entry): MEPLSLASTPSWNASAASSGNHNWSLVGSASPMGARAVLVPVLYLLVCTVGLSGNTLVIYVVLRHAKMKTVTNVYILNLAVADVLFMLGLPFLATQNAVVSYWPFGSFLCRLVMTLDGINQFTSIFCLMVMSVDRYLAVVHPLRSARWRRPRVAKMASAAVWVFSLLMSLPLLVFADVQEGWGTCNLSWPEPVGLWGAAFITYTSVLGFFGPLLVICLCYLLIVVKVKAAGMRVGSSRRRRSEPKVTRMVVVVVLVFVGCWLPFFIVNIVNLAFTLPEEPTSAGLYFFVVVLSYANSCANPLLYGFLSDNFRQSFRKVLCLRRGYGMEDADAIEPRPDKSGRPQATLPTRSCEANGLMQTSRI

Experiment [3] addresses Somatostatin receptor type 2 (Rattus norvegicus, UniProt P30680).
In experiment [4] the target is Somatostatin receptor type 1 (Rattus norvegicus, UniProt P28646).
Chain of Somatostatin receptor type 1 (P28646 whole entry): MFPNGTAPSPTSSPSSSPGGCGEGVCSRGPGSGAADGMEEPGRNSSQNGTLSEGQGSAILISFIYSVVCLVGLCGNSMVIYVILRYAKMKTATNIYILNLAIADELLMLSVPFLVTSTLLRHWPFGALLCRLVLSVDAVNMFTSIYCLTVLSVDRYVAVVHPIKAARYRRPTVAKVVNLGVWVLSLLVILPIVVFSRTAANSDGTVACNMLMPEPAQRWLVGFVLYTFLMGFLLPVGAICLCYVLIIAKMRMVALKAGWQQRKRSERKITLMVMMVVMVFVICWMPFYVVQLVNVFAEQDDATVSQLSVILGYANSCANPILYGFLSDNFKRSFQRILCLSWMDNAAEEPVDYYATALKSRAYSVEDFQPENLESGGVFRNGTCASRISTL
Experiment [5] addresses Somatostatin receptor type 4 (Rattus norvegicus, UniProt P30937).

Positions of bridges follow the written chain, without caps; N, C: chain ends. Non-standard residues stand in square brackets, D forms with d. Residues, ends and D or L forms follow the SMILES beside them. ξ: configuration not given here. 2Nal = N[C@@H](Cc1ccc2ccccc2c1)C(=O)O; d2Nal = N[C@H](Cc1ccc2ccccc2c1)C(=O)O; ξPhg = NC(C(=O)O)c1ccccc1; Abu = CC[C@H](N)C(=O)O

Chain of Somatostatin receptor type 3 (P30936 whole entry): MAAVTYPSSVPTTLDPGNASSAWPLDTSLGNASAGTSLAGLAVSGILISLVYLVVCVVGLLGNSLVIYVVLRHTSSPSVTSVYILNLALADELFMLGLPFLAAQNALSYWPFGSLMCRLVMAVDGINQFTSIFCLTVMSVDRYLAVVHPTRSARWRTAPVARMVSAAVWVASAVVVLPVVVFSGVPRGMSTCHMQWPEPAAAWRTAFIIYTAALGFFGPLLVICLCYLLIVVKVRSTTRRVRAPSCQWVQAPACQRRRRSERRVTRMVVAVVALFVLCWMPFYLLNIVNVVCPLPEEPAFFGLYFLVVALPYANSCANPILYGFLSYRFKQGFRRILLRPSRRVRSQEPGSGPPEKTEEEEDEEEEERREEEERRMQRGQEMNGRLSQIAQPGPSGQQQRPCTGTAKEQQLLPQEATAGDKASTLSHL
Chain of Somatostatin receptor type 2 (P30680 whole entry): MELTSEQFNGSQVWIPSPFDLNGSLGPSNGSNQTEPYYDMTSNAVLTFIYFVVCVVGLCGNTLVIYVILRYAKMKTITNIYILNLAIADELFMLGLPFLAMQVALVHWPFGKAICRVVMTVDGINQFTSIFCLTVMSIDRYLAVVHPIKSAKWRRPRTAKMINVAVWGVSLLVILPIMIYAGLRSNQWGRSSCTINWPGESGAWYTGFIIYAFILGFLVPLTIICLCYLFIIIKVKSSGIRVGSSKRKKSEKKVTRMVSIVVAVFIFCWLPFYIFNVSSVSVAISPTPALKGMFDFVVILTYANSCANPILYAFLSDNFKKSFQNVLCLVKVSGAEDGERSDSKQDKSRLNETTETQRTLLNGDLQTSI
Chain of Somatostatin receptor type 4 (P30937 whole entry): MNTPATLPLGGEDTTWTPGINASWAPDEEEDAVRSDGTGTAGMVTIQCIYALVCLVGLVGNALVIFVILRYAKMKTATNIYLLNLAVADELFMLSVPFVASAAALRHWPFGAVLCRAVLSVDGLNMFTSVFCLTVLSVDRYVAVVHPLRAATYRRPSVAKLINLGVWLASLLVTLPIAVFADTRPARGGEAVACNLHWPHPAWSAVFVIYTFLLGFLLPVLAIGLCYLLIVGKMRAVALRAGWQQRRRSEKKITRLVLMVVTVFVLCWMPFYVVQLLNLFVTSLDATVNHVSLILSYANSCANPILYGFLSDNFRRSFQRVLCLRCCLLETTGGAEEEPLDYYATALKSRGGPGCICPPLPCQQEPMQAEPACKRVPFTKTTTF

As a reminder, the Ki is the dissociation constant of the complex between target and ligand, obtained from inhibition or displacement. Higher therefore signals lower affinity. As for `C[C@@H](O)[C@H](NC(=O)[C@H](Cc1ccccc1)NC(=O)[C@@H](NC(=O)[C@H](CCCCN)NC(=O)[C@@H](Cc1c[nH]c2ccccc12)NC(=O)[C@H](Cc1ccccc1)NC(=O)[C@H](Cc1ccccc1)NC(=O)[C@H](N)Cc1ccccc1)[C@@H](C)O)C(N)=O` [CAS_133073-82-2] (H-[dF]FF[dW]KTFT-NH2), the inhibition constant Ki in experiment [1] was determined as 0.42 nM; in experiment [2] it was 18 nM; in experiment [3] it was 32 nM.

As to `CC(C)[C@H](NC(=O)[C@H](CCCCN)NC(=O)[C@@H](Cc1c[nH]c2ccccc12)NC(=O)[C@H](Cc1ccc(O)cc1)NC(=O)[C@H](Cc1ccccc1)NC(=O)[C@H](N)Cc1ccccc1)C(=O)N[C@@H](Cc1ccccc1)C(=O)N[C@H](Cc1ccc2ccccc2c1)C(N)=O` [CAS_150155-61-6] (H-[dF]FY[dW]KVF[d2Nal]-NH2), the Ki was above 10000 nM in experiment [4]; 0.02 nM in experiment [1]; 158 nM in experiment [2]; 1000 nM in experiment [3]; 43 nM in experiment [5].

For the compound `CC(C)[C@@H]1NC(=O)[C@H](CCCCN)NC(=O)[C@@H](Cc2c[nH]c3ccccc23)NC(=O)[C@H](Cc2ccc(O)cc2)NC(=O)[C@@H](NC(=O)[C@H](N)Cc2ccc3ccccc3c2)CSSC[C@@H](C(=O)N[C@H](C(N)=O)[C@@H](C)O)NC1=O` [D-Nal-Cys-Tyr-D-Trp-Lys-Val-Cys-Thr-NH2], the Ki in experiment [4] was above 10000 nM; in experiment [1], 4.9 nM; in experiment [3], 1.6 nM.

Take `CC(C)[C@H](NC(=O)[C@H](CCCCN)NC(=O)[C@H](Cc1c[nH]c2ccccc12)NC(=O)[C@H](Cc1ccc(O)cc1)NC(=O)[C@@H](N)CS)C(=O)N[C@@H](CS)C(=O)N[C@H](C(N)=O)[C@@H](C)O` [D-Nal-Cys-Tyr-D-Trp-Lys-Val-Cys-Thr-NH2] (H-CYWKVCT-NH2): the Ki in experiment [2] was found to be 1000 nM.

Regarding `CC[C@@H]1NC(=O)[C@H](CCCCN)NC(=O)[C@@H](Cc2c[nH]c3ccccc23)NC(=O)[C@H](Cc2ccc(O)cc2)NC(=O)[C@@H](NC(=O)[C@H](N)Cc2ccccc2)CSSC[C@@H](C(=O)N[C@@H](Cc2ccc3ccccc3c2)C(N)=O)NC1=O` [D-Phe-Cys-Tyr-D-Trp-Lys-Abu-Cys-Nal-NH] (H-[dF]CY[dW]K[Abu]C[2Nal]-NH2; disulfide 2-7), the Ki is above 10000 nM in experiment [4], 11 nM in experiment [1] and 0.01 nM in experiment [3].

For the compound `CC(C)[C@H](NC(=O)[C@H](CCCCN)NC(=O)[C@@H](Cc1c[nH]c2ccccc12)NC(=O)[C@H](Cc1ccc(O)cc1)NC(=O)[C@H](Cc1ccccc1)NC(=O)[C@H](N)Cc1ccccc1)C(=O)N[C@@H](Cc1ccccc1)C(=O)N[C@H](C(N)=O)[C@@H](C)O` [D-Phe-Phe-Tyr-D-Trp-Lys-Val-Phe-Thr-NH2] (H-[dF]FY[dW]KVFT-NH2), the Ki in experiment [4] is above 10000 nM; in experiment [1], 0.03 nM; in experiment [3] it was 46 nM; in experiment [5], 1.2 nM.

As for `CC(C)[C@H](NC(=O)[C@H](CCCCN)NC(=O)[C@H](Cc1c[nH]c2ccccc12)NC(=O)[C@H](Cc1ccc(O)cc1)NC(=O)[C@H](Cc1ccccc1)NC(=O)C(N)c1ccccc1)C(=O)N[C@@H](Cc1ccccc1)C(=O)N[C@H](C(N)=O)[C@@H](C)O` (stereo partly drawn) [D-Phe-Phe-Tyr-D-Trp-Lys-Val-Phe-Thr-NH2] (H-[ξPhg]FYWKVFT-NH2), the affinity in experiment [2] corresponds to a Ki of 77 nM.
